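Values below derive from 48-hour exposures of cells grown in 96-well plates, with endpoints linearly interpolated between the two concentrations bracketing the appropriate inhibition level. GI50: concentration for 50% inhibition of growth.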 Calls of active or inactive are those of the source. No stated cut-off is given here; in the data, active = GI50 up to about 1.1 µM and inactive = higher.
Legend:
Test in all cases: DTP human tumour cell line panel, 48 h
786-0 = tested on: 786-0
A549 = tested on: A549
BT-549 = tested on: BT-549
CAKI-1 = tested on: CAKI-1
CCRF-CEM = tested on: CCRF-CEM
COLO 205 = tested on: COLO 205
EKVX = tested on: EKVX
Hs-578T = tested on: Hs-578T
LOX IMVI = tested on: LOX IMVI
MDA-MB-435 = tested on: MDA-MB-435
NCI-H522 = tested on: NCI-H522
OVCAR-3 = tested on: OVCAR-3
OVCAR-4 = tested on: OVCAR-4
OVCAR-5 = tested on: OVCAR-5
RPMI-8226 = tested on: RPMI-8226
SF-268 = tested on: SF-268
SF-295 = tested on: SF-295
SF-539 = tested on: SF-539
SK-MEL-5 = tested on: SK-MEL-5
SNB-19 = tested on: SNB-19

Measured: GI50

C/C(=N/NC(N)=S)c1ccc[nH]1
inactive: 786-0 > 100 µM | A549 > 100 µM | BT-549 > 100 µM | CAKI-1 > 100 µM | CCRF-CEM > 100 µM | COLO 205 > 100 µM | EKVX > 100 µM | Hs-578T > 100 µM | LOX IMVI > 100 µM | MDA-MB-435 > 100 µM | NCI-H522 > 100 µM | OVCAR-3 > 100 µM | OVCAR-4 78.9 µM | OVCAR-5 > 100 µM | RPMI-8226 > 100 µM | SF-268 > 100 µM | SF-295 > 100 µM | SF-539 > 100 µM | SK-MEL-5 > 100 µM | SNB-19 > 100 µM
